System: cell clumps in blood
Assay: Cell clumping of biological samples (blood) processed through a microfluidic device
Format: cell-based
Conditions: DU 2% final working concentration, incubated at room temperature for 30 minutes or overnight, compared with samples without DU (FIGS. 1-4)
Method: In this experiment, DU was dissolved in PBS to make an 80% (w/v) aqueous concentrated solution. The concentrated solution was then added to biological samples in such a way as to yield a final working concentration of 2%. Biological samples were gently mixed with DU solution to ensure equal distribution of DU, and the resulting mixture was incubated at room temperature for at least 30 minutes.
Samples were then processed according to pre-determined protocols.
FIG. 1 provides an example of samples without being treated with DU and processed through a microfluidic device. The white strands are cell clumps.
FIG. 2 provides an example of samples being treated with DU and processed through a microfluidic device (for this particular experiment, the sample and DU were incubated overnight).
FIG. 3 provides another example of samples without being treated with DU and processed through a microfluidic device.
FIG. 4 provides another example of samples being treated with DU and processed through a microfluidic device (for this particular experiment, the sample and DU were incubated for 30 minutes.

## O=C(NCO)N(CO)C1(CO)C(=O)NC(=O)N1CO (stereo not shown) [DU, diazolidinyl urea]
  reduction of cellular clumping: great improvement for reducing cellular clumping
